Patent publication US20250019410A1, “PROCESS FOR THE PREPARATION OF TIRZEPATIDE OR PHARMACEUTICALLY ACCEPTABLE SALT THEREOF” (Sun Pharmaceutical Industries Ltd., priority 2021, published 2025)

Assay type: physicochemical
Experimental: The solubility of the salts in water (see Table 3), methanol (see Table 4) and phosphate buffer (see Table 5) were tested.

CC[C@H](C)[C@H](NC(=O)[C@H](CC(C)C)NC(=O)[C@H](Cc1c[nH]c2ccccc12)NC(=O)[C@H](CCC(N)=O)NC(=O)[C@@H](NC(=O)[C@H](Cc1ccccc1)NC(=O)[C@H](C)NC(=O)[C@H](CCCCNC(=O)COCCOCCNC(=O)COCCOCCNC(=O)CC[C@H](NC(=O)CCCCCCCCCCCCCCCCCCC(=O)O)C(=O)O)NC(=O)[C@H](CCC(N)=O)NC(=O)[C@H](C)NC(=O)[C@@H](NC(=O)[C@H](CCCCN)NC(=O)[C@H](CC(=O)O)NC(=O)[C@H](CC(C)C)NC(=O)C(C)(C)NC(=O)[C@@H](NC(=O)[C@H](CO)NC(=O)[C@H](Cc1ccc(O)cc1)NC(=O)[C@H](CC(=O)O)NC(=O)[C@H](CO)NC(=O)[C@@H](NC(=O)[C@H](Cc1ccccc1)NC(=O)[C@@H](NC(=O)CNC(=O)[C@H](CCC(=O)O)NC(=O)C(C)(C)NC(=O)[C@@H](N)Cc1ccc(O)cc1)[C@@H](C)O)[C@@H](C)O)[C@@H](C)CC)[C@@H](C)CC)C(C)C)C(=O)N[C@@H](C)C(=O)NCC(=O)NCC(=O)N1CCC[C@H]1C(=O)N[C@@H](CO)C(=O)N[C@@H](CO)C(=O)NCC(=O)N[C@@H](C)C(=O)N1CCC[C@H]1C(=O)N1CCC[C@H]1C(=O)N1CCC[C@H]1C(=O)N[C@@H](CO)C(N)=O [Acetic acid content - 1.06%]
Solubility - in Water (descriptive term only): Practically insoluble in water

CC[C@H](C)[C@H](NC(=O)[C@H](CC(C)C)NC(=O)[C@H](Cc1c[nH]c2ccccc12)NC(=O)[C@H](CCC(N)=O)NC(=O)[C@@H](NC(=O)[C@H](Cc1ccccc1)NC(=O)[C@H](C)NC(=O)[C@H](CCCCNC(=O)COCCOCCNC(=O)COCCOCCNC(=O)CC[C@H](NC(=O)CCCCCCCCCCCCCCCCCCC(=O)O)C(=O)O)NC(=O)[C@H](CCC(N)=O)NC(=O)[C@H](C)NC(=O)[C@@H](NC(=O)[C@H](CCCCN)NC(=O)[C@H](CC(=O)O)NC(=O)[C@H](CC(C)C)NC(=O)C(C)(C)NC(=O)[C@@H](NC(=O)[C@H](CO)NC(=O)[C@H](Cc1ccc(O)cc1)NC(=O)[C@H](CC(=O)O)NC(=O)[C@H](CO)NC(=O)[C@@H](NC(=O)[C@H](Cc1ccccc1)NC(=O)[C@@H](NC(=O)CNC(=O)[C@H](CCC(=O)O)NC(=O)C(C)(C)NC(=O)[C@@H](N)Cc1ccc(O)cc1)[C@@H](C)O)[C@@H](C)O)[C@@H](C)CC)[C@@H](C)CC)C(C)C)C(=O)N[C@@H](C)C(=O)NCC(=O)NCC(=O)N1CCC[C@H]1C(=O)N[C@@H](CO)C(=O)N[C@@H](CO)C(=O)NCC(=O)N[C@@H](C)C(=O)N1CCC[C@H]1C(=O)N1CCC[C@H]1C(=O)N1CCC[C@H]1C(=O)N[C@@H](CO)C(N)=O [Ammonium content- 0.25%]
Solubility - in Water (descriptive term only): practically insoluble in water
